Consider six compounds from patent US12414960B2, “Analogues of oleuropein and oleacein and uses thereof” (Attica Sciences Ltd., priority 2020, dated 2025).

For one assay, the target named is T1, ATP-citrate lyase (ACLY) (Homo sapiens, UniProt P53396).
T1 construct: purchased BPS Bioscience
T1 sequence (P53396 1-1101): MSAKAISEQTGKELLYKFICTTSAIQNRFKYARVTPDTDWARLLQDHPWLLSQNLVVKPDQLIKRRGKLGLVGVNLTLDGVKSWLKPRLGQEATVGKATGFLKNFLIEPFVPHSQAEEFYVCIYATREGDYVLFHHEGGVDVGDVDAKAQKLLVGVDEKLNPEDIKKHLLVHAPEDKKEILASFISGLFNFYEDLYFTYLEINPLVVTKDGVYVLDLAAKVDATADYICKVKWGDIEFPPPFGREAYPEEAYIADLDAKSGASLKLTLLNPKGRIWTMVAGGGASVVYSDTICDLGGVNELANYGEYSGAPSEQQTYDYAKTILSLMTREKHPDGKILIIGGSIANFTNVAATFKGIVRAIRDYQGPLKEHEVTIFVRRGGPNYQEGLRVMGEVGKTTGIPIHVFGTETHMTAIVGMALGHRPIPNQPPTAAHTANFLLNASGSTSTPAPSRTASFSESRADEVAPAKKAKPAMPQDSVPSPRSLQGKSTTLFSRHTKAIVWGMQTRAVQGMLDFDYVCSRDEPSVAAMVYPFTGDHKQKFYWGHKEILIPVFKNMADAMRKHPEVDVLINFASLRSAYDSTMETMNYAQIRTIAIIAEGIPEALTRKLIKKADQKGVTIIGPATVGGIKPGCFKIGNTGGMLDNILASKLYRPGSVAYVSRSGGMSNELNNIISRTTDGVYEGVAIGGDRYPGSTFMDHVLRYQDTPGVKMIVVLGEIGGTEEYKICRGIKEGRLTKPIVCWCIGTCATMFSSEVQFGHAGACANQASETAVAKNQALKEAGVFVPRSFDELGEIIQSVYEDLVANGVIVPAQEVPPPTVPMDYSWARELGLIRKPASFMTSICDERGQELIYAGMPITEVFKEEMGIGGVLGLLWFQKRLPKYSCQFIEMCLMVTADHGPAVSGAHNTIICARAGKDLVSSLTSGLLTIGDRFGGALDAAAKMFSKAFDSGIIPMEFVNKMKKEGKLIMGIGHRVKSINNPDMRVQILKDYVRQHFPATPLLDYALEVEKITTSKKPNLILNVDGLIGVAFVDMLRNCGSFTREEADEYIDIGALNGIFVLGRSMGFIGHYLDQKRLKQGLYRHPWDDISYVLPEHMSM
The assay can be described thus: ACLY Assay Kit (ADP-Glo) enzymatic activity. It counts as biochemical. An excerpt: An ACLY Assay Kit (BPS Bioscience) was used to evaluate GS27 against ATP-citrate lyase (ACLY) enzymatic activity. The ACLY Assay Kit is designed to measure ACLY activity for screening and profiling applications using ADP-Glo™ Kinase Assay as a detection reagent (Promega #V6930). The ADP-Glo™ Kinase Assay is a luminescent ADP detection assay that provides a universal, homogeneous, high-throughput screening method to measure kinase activity by quantifying the amount of ADP produced during a kinase reaction. Multiple (1, 10, 100, 250, 500, 1000, 2000 nM) GS27 concentrations were used to evaluate GS27 IC50 activity.
For orientation: In ADP-Glo the light output rises with the ADP produced.

The next assay has as its system pACLY (S455). Nature of the assay: ELISA of pACLY (S455) / ACLY enzymatic activity in PANC-1 cells. Type of assay: cell-based, human. The conditions noted are these: 5 μM. The procedure: ELISA assay was used to evaluate the effect of GS compounds on protein activity levels in PANC-1 cancer cells. PANC-1 cells were serum-starved overnight and then treated with rIGF1 (100 ng/mL) for 24 hours, with or without GS27 (5 μM). The levels of the following proteins were evaluated by ELISA assay: a) p70 S6 (T389) (cat no. 54164C, Cell Signaling); b) pAKT (S473), (cat no. 80895, Cell Signaling); c) pACLY (S455), (cat no. okag1672, Avivasysbio); d) pAMPK (T172) (cat no. 7959C, Cell Signaling) and e) p65/NFKB (S536), (cat no. 7173, Cell Signaling).
PANC-1 is a human pancreatic ductal adenocarcinoma cell line derived from the carcinoma of a person.
The molecular mechanism of action of GS27, a compound that has exerted potent anti-cancer activity in different cancer cell lines including pancreatic cancer cells, was investigated. Oleacein has been implicated to have anti-inflammatory and metabolic effects, thus the potential effects of GS27 in different metabolic and inflammatory pathways were evaluated. Specifically, the protein levels of p70 S6 (T389), pAKT (S473), pACLY (S455), pAMPK (T172) and p65/NFKB (S536) were evaluated by ELISA assay in PANC-1 pancreatic cancer cells treated with 5 μM GS27. GS27 reduced p70 S6 and AKT phosphorylation levels, while it increased AMPK phosphorylation.
The effects of different GS compounds on ACLY enzymatic activity were evaluated by ELISA assay in PANC-1 pancreatic cancer cells. […] This finding is unexpected, since GS21 has a very similar structure with GS27, with the only difference being the presence of an oxygen atom in ester GS21 instead of a sulfur atom in thioester GS27.
(In general: ELISA stands for enzyme-linked immunosorbent assay.)

Where [1] appears, read: same assay as GS27, read-out: IC50 against ACLY enzyme.

pIC50: −log10 of the molar value. Entries after “also recorded” stand apart in the source; their conditions may differ. Where two headings read alike, the source gives them in different places. Bounds are passed on as bounds.

As for `C/C=C1/[C@H](O[C@@H]2O[C@H](CO)[C@@H](O)[C@H](O)[C@H]2O)OC=C(C(=O)OC)[C@H]1CC(=O)OCCc1ccc(O)c(O)c1` [GS1, oleuropein], the pIC50 at ATP-citrate lyase (ACLY) (setting [1]) was less than 5.00.
Still for that read-out and setting: under `C/C=C(/C=O)[C@@H](CC=O)CC(=O)OCCc1ccc(O)cc1` [GS19, (3S,4E)-4-formyl-3-(2-oxoethyl)-4-hexenoic acid 2-(4-hydroxyphenyl)ethyl ester, reference compound] stands less than 5.00.
Turning to `C/C=C(/C=O)[C@@H](CC=O)CC(=O)OCCOc1ccccc1` [GS24, (3S,4E)-4-formyl-3-(2-oxoethyl)-4-hexenoic acid 2-phenoxyethyl ester], the “ACLY enzymatic activity (ELISA)” value in the assay with pACLY (S455) is “small effect”.
`C/C=C(/C=O)[C@@H](CC=O)CC(=O)OCCCCCCCCCCCCCCCC` [GS26, (3S,4E)-4-formyl-3-(2-oxoethyl)-4-hexenoic acid hexadecyl ester]: the “ACLY enzymatic activity (ELISA)” value with pACLY (S455) is “did not show any effect”.
Consider `C/C=C(/C=O)[C@@H](CC=O)CC(=O)SCCc1ccccc1` [GS27, S-phenethyl (3S,4E)-4-formyl-3-(2-oxoethyl)hex-4-enethioate], for which the negative logarithm of the IC50 (pIC50) on ATP-citrate lyase (ACLY) (1-2000 nM tested, read-out: IC50 of ACLY activity) is 7.09. The “ACLY enzymatic activity (ELISA)” value in the assay with pACLY (S455) is reported as “dramatic effect on reducing; also recorded: substantially reducing”.
As for `C/C=C(/C=O)[C@@H](CC=O)CC(=O)OCCCSC` [GS28, (3S,4E)-4-formyl-3-(2-oxoethyl)-4-hexenoic acid 3-(methylthio)propyl ester], in the assay with pACLY (S455), the “ACLY enzymatic activity (ELISA)” value is “did not show any effect”.

Usually pIC50 stands for the negative decadic logarithm of the IC50, by convention in mol/L.
